# Test results: patent publication US20210198629A1, “COMPOSITIONS AND METHODS FOR INCREASING BEIGING OF WHITE ADIPOSE TISSUE” (University of Georgia Research Foundation, Inc., priority 2018, published 2021)
# How the values were obtained:
# [1] = system: DIO mice; test: Body weight, adiposity (BIS), food intake, treadmill exhaustion in DIO mice after oral BI-7273; type: in vivo, mouse
# Experimental: Treadmill exhaustion test was performed with an Exer 3/6 treadmill and controller (Columbus Instruments). The treadmill was set up with a uphill inclination of 10%.
# Mice were anesthetized with 1% isoflurane and lied flat dorsal side up with limbs perpendicular and tail straight. Four electrodes of ImpediVET were fastened with 28G needles and placed on four points on the midline of the body. Fat-free mass (FFM) and fat mass (FM) were calculated from total body water (TBW) determined by input body weight and complex impedance plotting of 256 frequencies between 4 kHz and 1000 kHz.
# Given the above augmentation of whole-body energy expenditure in BI-7273 treated DIO models, whether BI-7273 is sufficient to induce body weight loss and reduce adiposity (anti-obesity effects) was also investigated. DIO models were gavaged with BI-7273 or control 0.5% Natrosol for 14 days as described above and later fed with HFD for one additional month. […] On average, BI-7273 treated DIO mice lost ˜15.5% of body weight at the end of the study (1.5 months after the start of gavage; FIG. 5F). This weight loss rate is higher than the criterium established by the Endocrine Society for effective treatment of obesity (>5% weight loss over three months) (Apovian, C. M., et al., J Clin Endocrinol Metab, 100, 342-362 (2015)).
# Using bioimpedance spectroscopy (BIS), the adiposity (fat mass percent) of mice before and after gavage was measured. […] On average, the reduced fat mass (55 grams×21%=11.6 grams) in BI-7273 treated mice was more than the body weight loss at the end of the study (˜9 grams), which indicates a concomitant increase of lean mass in BI-7273 treated DIO mice.
# [2] = system: type 2 diabetic DIO mice; test: Blood glucose, HbA1c, HOMA-IR, IPGTT, IPITT in DIO mice after oral BI-7273; type: in vivo, mouse
# Experimental: Blood samples were taken from the tail vein and measured on HbA1c cartridges (5035C) loaded in a DCA Vantage Analyzer (Siemens).
# (§1) IPGTT was performed after 16 hrs fasting. Glucose (2 g kg^−1 body weight) was injected intraperitoneally. Blood samples were taken from the tail vein. Glucose levels were measured at 0, 15, 30, 60, and 120 min after glucose injection using a glucometer (OneTouch, Ultra 2).
# as §1, with “IPITT” for “IPGTT”, “6” for “16”, “Insulin (0.75 U” for “Glucose (2 g”, “weight, Roche Risch-Rotkreuz, Switzerland)” for “weight)”, “insulin” for “glucose”
# Next, whether BI-7273 oral administration is sufficient to protect DIO models from type 2 diabetes was investigated. Before gavage (3 months after HFD feeding), DIO models developed diabetes as evidenced by 1) averaged random non-fasting blood glucose level at ˜250 mg/dL; and 2) averaged glycated hemoglobin (HbA1c) level at 6.5% (FIG. 6A, B). […] Upon HFD feeding, C57BL/6 mice are predisposed to type 2 diabetes, which is characterized by insulin resistance (averaged HOMA-IR index=95; FIG. 6C)(32). BI-7273 oral administration lowered HOMA-IR index (to ˜55%; FIG. 6C), indicating much improved β-cell function and insulin resistance.
# [3] = system: AML xenograft model; conditions: cited from earlier work
# [4] = in vivo; cited from earlier work
# [5] = 14-day oral administration, 1 month HFD refeeding
smiles,measurement,setting,value
"COc1cc(-c2cn(C)c(=O)c3cnccc23)cc(OC)c1CN(C)C [BI-7273, 4-[4-[(dimethylamino)methyl]-3,5-dimethoxyphenyl]-2-methyl-2,7-naphthyridin-1-one]",reduced fat mass,"[1]; 55 grams×21%, end of study",11.6 grams
same,adiposity (fat mass percent),"[1]; BIS, end of study, 1.5 months after the start of gavage, ~47% before gavage",~26%
same,treadmill performance (time until exhaustion),[1]; after treatment,improved
same,food intake,"[1]; before and after gavage, vs control group",comparable
same,body weight lost,"[1]; end of study, 1.5 months after the start of gavage, HFD refeeding",~15.5%
same,body weight loss,[1]; end of the study,~9 grams
same,lean mass,[1]; inferred from fat mass vs body weight loss,increase
same,HbA1c level,"[2]; 100 mg/kg/day oral for 14 days, 6.5% before gavage",~5%
same,random non-fasting blood glucose level,"[2]; 100 mg/kg/day oral for 14 days, ~250 mg/dL before gavage",130 mg/dL
same,glucose tolerance (IPGTT),[2]; [5],drastically improved
same,insulin sensitivity (IPITT),[2]; [5],drastically improved
same,HOMA-IR index,"[2]; oral administration, averaged index 95 upon HFD feeding",~55%
same,antitumor activity,[3],antitumor activity
same,bioavailability,[4],good and high
